According to paper PMC6264874, “A single class of ARF GTPase activated by several pathway-specific ARF-GEFs regulates essential membrane traffic in Arabidopsis” (PLoS Genetics, 2018):

Key:
[1] = molecular target: T1, ARFA (ARFB1b), residues 18-192 (Arabidopsis thaliana, UniProt Q9LFJ7); test: tryptophan fluorescence nucleotide exchange (ex […] nm, em […] nm); assay type: binding; details: 1 uM GDP-loaded ARF, 66 uM GTPgammaS, 50 nM SEC7 domain of BIG5 (residues 587-791), 10 mM MgCl2, pH 7.5, 37 C
T1 construct: N-terminally truncated (residues 18-192), 6xHis-tagged (pET30a), expressed in E. coli BL21(DE3), Ni-NTA purified
T1 sequence (Q9LFJ7 18-192): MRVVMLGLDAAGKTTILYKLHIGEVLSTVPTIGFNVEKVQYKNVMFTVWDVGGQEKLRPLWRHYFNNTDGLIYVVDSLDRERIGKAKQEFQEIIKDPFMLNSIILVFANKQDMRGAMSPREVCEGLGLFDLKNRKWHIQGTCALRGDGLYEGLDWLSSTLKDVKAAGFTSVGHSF

[2] = molecular target: T2, ARF1 (ARFA1c), residues 18-181 (Arabidopsis thaliana, UniProt P36397); test: as above; assay type: binding; details: 1 uM GDP-loaded ARF, 66 uM GTPgammaS, 50 nM SEC7 domain of BIG5 (residues 587-791), 10 mM MgCl2, pH 7.5, 37 C
T2 construct: N-terminally truncated (residues 18-181), 6xHis-tagged (pET30a), expressed in E. coli BL21(DE3), Ni-NTA purified
T2 sequence (P36397 18-181): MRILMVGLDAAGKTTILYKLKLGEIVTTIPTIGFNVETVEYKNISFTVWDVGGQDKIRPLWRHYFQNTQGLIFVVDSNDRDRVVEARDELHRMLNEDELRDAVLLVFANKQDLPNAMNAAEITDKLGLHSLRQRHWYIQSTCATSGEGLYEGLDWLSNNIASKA

## Nc1nc2c(ncn2[C@@H]2O[C@H](COP(=O)(O)OP(=O)(O)OP(O)(O)=S)[C@@H](O)[C@H]2O)c(=O)[nH]1 [GTPγS]
[1]
  tryptophan fluorescence nucleotide exchange (ex 298 nm, em 340 nm): The SEC7 domain of BIG5 catalyzed GDP-GTP exchange on ARF1(wt), ARFA(wt) and ARFA-Q71L
[2]
  tryptophan fluorescence nucleotide exchange (ex 298 nm, em 340 nm): The SEC7 domain of BIG5 catalyzed GDP-GTP exchange on ARF1(wt), ARFA(wt) and ARFA-Q71L
